Measured values: paper PMC7822874, “Chemoprotective antimalarials identified through quantitative high-throughput screening of Plasmodium blood and liver stage parasites” (Scientific Reports, 2021)
Where two headings read alike, the source gives them in different places.

What was measured:
[1] = tested on: P. berghei-ANKA-GFP-LucCON liver stage parasites in HepG2-A16-CD81EGFP cells; assay: P. berghei liver stage Pb-Luc assay, Method 1 (UCSD, 1536-well); assay type: cell-based, Plasmodium berghei; details: P. berghei liver stage, average of 2 wells on a 1536 well plate; for activity at 1 µM / activity at 3 µM: Plasmodium berghei, 48 h
[2] = tested on: Plasmodium falciparum Dd2 asexual blood stage parasites; assay: microbe, parasite or virus in culture; design: species or system Plasmodium falciparum Dd2 in human erythrocytes; single determination (one 11-point concentration-response curve); details: Plasmodium falciparum, DD2, Erythrocyte, 72 h; read-out: AC50
HepG2-A16-CD81EGFP cells = details: average of 2 wells; for HepG2 1uM growth rep1 / HepG2 1uM growth rep2: HepG2, 1 µM compound treatment (10 mM stocks); for HepG2 1uM growth rep1 / HepG2 3uM growth rep1: replicate 1, normalized; for HepG2 1uM growth rep2 / HepG2 3uM growth rep2: replicate 2, normalized; for HepG2 3uM growth rep1 / HepG2 3uM growth rep2: HepG2, 3 µM compound treatment (10 mM stocks)
[3] = 1 µM compound treatment (10 mM stocks), replicate 1, normalized, read-out: PbLuc 1uM growth rep1
[4] = 1 µM compound treatment (10 mM stocks), replicate 2, normalized, read-out: PbLuc 1uM growth rep2
[5] = 3 µM compound treatment (10 mM stocks), replicate 1, normalized, read-out: PbLuc 3uM growth rep1
[6] = 3 µM compound treatment (10 mM stocks), replicate 2, normalized, read-out: PbLuc 3uM growth rep2

| Compound | activity at 1 µM [1, 3] [%] | activity at 1 µM [1, 4] [%] | activity at 3 µM [1, 5] [%] | activity at 3 µM [1, 6] [%] | AC50 [2] [nM] | HepG2 1uM growth rep1 (HepG2-A16-CD81EGFP cells) [%] | HepG2 1uM growth rep2 (HepG2-A16-CD81EGFP cells) [%] | HepG2 3uM growth rep1 (HepG2-A16-CD81EGFP cells) [%] | HepG2 3uM growth rep2 (HepG2-A16-CD81EGFP cells) [%] | PbLuc 1uM growth rep1 ([1]; 1 µM compound treatment (10 mM stocks), replicate 1, normalized) [%] | PbLuc 1uM growth rep2 ([1]; 1 µM compound treatment (10 mM stocks), replicate 2, normalized) [%] | PbLuc 3uM growth rep1 ([1]; 3 µM compound treatment (10 mM stocks), replicate 1, normalized) [%] | PbLuc 3uM growth rep2 ([1]; 3 µM compound treatment (10 mM stocks), replicate 2, normalized) [%] |
| --- | --- | --- | --- | --- | --- | --- | --- | --- | --- | --- | --- | --- | --- |
| Cc1ccc(C)c2sc(N3CCN(C(=O)c4ccc([N+](=O)[O-])o4)CC3)nc12 [MLS001234268-01] | 97 | 91 | 57 | 53 | 4730 | 104 | 96 | 90 | 99 |  |  |  |  |
| C/C(=N\Nc1nc(-c2ccccc2O)nc2ccccc12)c1ccccc1 [MLS000714167-01] | 134 | 124 | 108 | 121 | 750 | 91 | 94 | 91 | 97 |  |  |  |  |
| O=C(Nc1ccc(C2=NCCN2)cc1)c1ccc(C(=O)Nc2ccc(C3=NCCN3)cc2)c(Cl)c1 [MLS000737368-01] | 107 | 94 | 72 | 81 | 473 | 102 | 94 | 85 | 95 |  |  |  |  |
| CC(C)CCN(CCC(C)C)CC(O)Cn1c2ccccc2c(=O)c2ccccc21 (centres unmarked) [MLS001030199-01] | 128 | 103 | 76 | 87 | 1880 | 105 | 96 | 84 | 94 |  |  |  |  |
| COc1cccc(NC(=O)CN(C)C(=O)c2ccc(-c3cccc(C(F)(F)F)c3)o2)c1 [MLS001071804-01] | 153 | 125 | 107 | 104 | 596 | 105 | 98 | 84 | 96 |  |  |  |  |
| CC(NCc1ccccc1O)C12CC3CC(CC(C3)C1)C2 (centres unmarked) [MLS001173343-01] | 106 | 90 | 70 | 88 | 94.4 | 109 | 103 | 93 | 102 |  |  |  |  |
| CCOC(=O)c1c(NC(=O)C[n+]2ccc(N(C)C)cc2)sc(C)c1C [MLS000710762-01] | 75 | 72 | 18 | 30 | 1330 | 91 | 84 | 65 | 65 |  |  |  |  |
| COc1cccc2sc(N3CCN(C(=O)c4ccc([N+](=O)[O-])o4)CC3)nc12 [MLS001234267-01] | 111 | 94 | 69 | 79 | 4730 | 103 | 96 | 94 | 93 |  |  |  |  |
| COc1cc(O)c(C(CCN2CCCCC2)c2ccc(N(C)C)cc2)c(OC)c1 (centres unmarked) [MLS000879496-01] | 126 | 95 | 91 | 95 | 2660 | 108 | 100 | 87 | 98 |  |  |  |  |
| O=C(CCl)Nc1ccc(Oc2cnc3ccccc3n2)cc1 [MLS000327546-01] | 99 | 119 | 104 | 138 | 3350 | 90 | 86 | 92 | 90 |  |  |  |  |
| COc1ccc2nc(N3CCN(C(=O)c4ccc([N+](=O)[O-])o4)CC3)sc2c1 [MLS001234236-01] | 100 | 81 | 91 | 103 | 4730 | 91 | 90 | 89 | 89 |  |  |  |  |
| COc1cc(NC(=O)c2cc([N+](=O)[O-])ccc2NC(=O)CNC2CCCCC2C)cc(OC)c1 (centres unmarked) [MLS000950459-01] | 94 | 109 | 82 | 122 | 5960 | 96 | 92 | 90 | 90 |  |  |  |  |
| Cc1cc(C)c(C)c(S(=O)(=O)NCc2ccc(C(=O)N3CCCCC3)cc2)c1C [MLS000547926-01] | 124 | 129 | 104 | 108 | 3760 | 93 | 95 | 87 | 94 |  |  |  |  |
| Cc1ccc(-c2cc(C(F)(F)F)n3ncc(C(=O)N4CCCCC4c4cccnc4)c3n2)cc1 (centres unmarked) [MLS000729132-01] | 126 | 132 | 100 | 119 | 1880 | 101 | 94 | 89 | 91 |  |  |  |  |
| CCOC(=O)C1CCN(Cc2cc(Cl)c3ccccc3c2O)CC1 [MLS001171913-01] | 100 | 93 | 91 | 110 | 1880 | 88 | 93 | 88 | 86 |  |  |  |  |
| COc1ccc(C2c3[nH]c4ccccc4c3C[C@H]3C(=O)N(C4CCN(Cc5ccccc5)CC4)CC(=O)N23)cc1OC (some centres unmarked) [MLS001215281-01] | 95 | 94 | 66 | 79 | 2990 | 107 | 95 | 91 | 90 |  |  |  |  |
| CCCC(C)C(=O)Nc1ncc(S(=O)(=O)c2ccc([N+](=O)[O-])cc2)s1 (centres unmarked) [MLS001034555-01] | 109 | 117 | 105 | 136 | 5960 | 95 | 92 | 93 | 94 |  |  |  |  |
| COc1cccc(C2C3=C(N=c4sc(=Cc5ccccc5O)c(=O)n42)c2ccccc2CC3)c1OC (centres unmarked) [MLS000580951-01] | 115 | 99 | 96 | 91 | 2990 | 91 | 93 | 90 | 96 |  |  |  |  |
| COc1ccccc1[C@@]1(C)ON(c2ccccc2C(F)(F)F)C1=O [MLS002206613-01] |  |  |  |  |  | 103 | 96 | 83 | 94 | 129 | 87 | 95 | 109 |
